Results on 32 compounds are retold here after patent publication US20250171437A1 (Agios Pharmaceuticals,Inc., priority 2022, published 2025).

Some results are limits rather than exact numbers.

The first experiment deals with T1, human PAH with the R408W mutation (A375 R408W cells) (Homo sapiens, UniProt P00439, R408W).
T1 construct: expressed in transfected cells
T1 sequence (P00439 1-452 R408W): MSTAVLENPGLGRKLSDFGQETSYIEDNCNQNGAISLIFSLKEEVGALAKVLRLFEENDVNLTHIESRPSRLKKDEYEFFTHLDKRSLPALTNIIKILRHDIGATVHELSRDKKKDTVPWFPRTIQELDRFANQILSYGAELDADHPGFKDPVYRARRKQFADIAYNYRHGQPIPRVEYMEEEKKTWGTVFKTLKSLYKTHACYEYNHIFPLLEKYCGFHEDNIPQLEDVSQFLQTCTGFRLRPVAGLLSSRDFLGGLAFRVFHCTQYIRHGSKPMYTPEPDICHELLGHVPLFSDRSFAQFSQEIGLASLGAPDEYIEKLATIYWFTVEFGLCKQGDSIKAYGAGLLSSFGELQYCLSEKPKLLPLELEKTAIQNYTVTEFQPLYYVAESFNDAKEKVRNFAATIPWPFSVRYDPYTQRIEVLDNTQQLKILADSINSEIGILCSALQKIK
Kind of experiment: Cell Based Phenylalanine Flux Assay. As to conditions: A375 R408W cells; 24 hrs with compound, then 20 μM sepiapterin and 800 μM 13C9,15N-Phenylalanine for 4 hours; 13C-Tyrosine by LC-MS; average where tested multiple times. A digest of the protocol:
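Puromycin-selected A375 line, lentiviral hPAH R408W; cmpd 24 h, 37 °C, 5% CO2, 0.5% DMSO; then 20 μM sepiapterin + 800 μM 13C9,15N-Phe, 4 h; media extracted in 80% MeCN; 13C-Tyr by LC-MS; AC50 from 10-pt curves.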
For the compound `Cc1cccc2nc([C@@H]3c4nc[nH]c4CCN3C(=O)c3nnc(-c4cnn(C)c4)o3)oc12` [Example 565, (S)-(5-(1-methyl-1H-pyrazol-4-yl)-1,3,4-oxadiazol-2-yl)(4-(7-methylbenzo[d]oxazol-2-yl)-6,7-dihydro-1H-imidazo[4,5-c]pyridin-5(4H)-yl)methanone], the concentration at half-maximal activity (AC50) lay in the range of 0.5 to 1 µM. As for `CC(C)(C)c1ncc(C(=O)N2CCc3[nH]cnc3[C@@H]2c2nc3cc(F)ccc3o2)s1` [Example 18, (R)-(2-(tert-butyl)thiazol-5-yl)(4-(5-fluorobenzo[d]oxazol-2-yl)-6,7-dihydro-1H-imidazo[4,5-c]pyridin-5(4H)-yl)methanone], the AC50 lay within 1 to 5 µM. Consider `Cc1cccc2oc([C@@H]3c4nc[nH]c4CCN3C(=O)c3cnn4cc(N5CCC(O)CC5)ccc34)nc12` [Example 701, (S)-(6-(4-hydroxypiperidin-1-yl)pyrazolo[1,5-a]pyridin-3-yl)(4-(4-methylbenzo[d]oxazol-2-yl)-6,7-dihydro-1H-imidazo[4,5-c]pyridin-5(4H)-yl)methanone], for which the half-maximal activity concentration (AC50) was at most 0.5 µM. Turning to `O=C(c1oc(N2CCC(F)CC2)nc1C(F)F)N1CCc2[nH]cnc2[C@H]1c1nc2cccc(F)c2o1` [Example 676, (S)-(4-(difluoromethyl)-2-(4-fluoropiperidin-1-yl)oxazol-5-yl)(4-(7-fluorobenzo[d]oxazol-2-yl)-6,7-dihydro-1H-imidazo[4,5-c]pyridin-5(4H)-yl)methanone], the half-maximal activity concentration (AC50) was at most 0.5 µM. On to `Cn1cc(-c2nnc(C(=O)N3CCc4[nH]cnc4[C@H]3c3nc4cccc(F)c4o3)o2)cn1` [Example 191, (S)-(4-(7-fluorobenzo[d]oxazol-2-yl)-6,7-dihydro-1H-imidazo[4,5-c]pyridin-5(4H)-yl)(5-(1-methyl-1H-pyrazol-4-yl)-1,3,4-oxadiazol-2-yl)methanone], for which the AC50 lay within 0.5 to 1 µM.

For `COc1ccc(-c2nnc(C(=O)N3CCc4[nH]cnc4[C@@H]3c3nc4cc(C)ccc4o3)o2)nc1` [Example 678, (R)-(5-(5-methoxypyridin-2-yl)-1,3,4-oxadiazol-2-yl)(4-(5-methylbenzo[d]oxazol-2-yl)-6,7-dihydro-1H-imidazo[4,5-c]pyridin-5(4H)-yl)methanone], the AC50 is 1 to 5 µM. The same measure, in the same setting: the value for `CC(C)(O)c1nc(Cl)c(C(=O)N2CCc3[nH]cnc3[C@@H]2c2nc3ccc(F)cc3o2)o1` [Example 270, (R)-(4-chloro-2-(2-hydroxypropan-2-yl)oxazol-5-yl)(4-(6-fluorobenzo[d]oxazol-2-yl)-6,7-dihydro-1H-imidazo[4,5-c]pyridin-5(4H)-yl)methanone] was at least 5 µM; that for `O=C(c1cnn2cc(N3CCOCC3)ccc12)N1CCc2[nH]cnc2[C@@H]1c1nc2cccc(F)c2o1` [Example 366, (R)-(4-(7-fluorobenzo[d]oxazol-2-yl)-6,7-dihydro-1H-imidazo[4,5-c]pyridin-5(4H)-yl)(6-morpholinopyrazolo[1,5-a]pyridin-3-yl)methanone] was 1 to 5 µM. On to `Cc1ccc2oc([C@@H]3c4nc[nH]c4CCN3C(=O)c3oc(-c4ccn(C)n4)nc3C(F)F)nc2c1` [Example 755, (S)-(4-(difluoromethyl)-2-(1-methyl-1H-pyrazol-3-yl)oxazol-5-yl)(4-(5-methylbenzo[d]oxazol-2-yl)-6,7-dihydro-1H-imidazo[4,5-c]pyridin-5(4H)-yl)methanone], for which the AC50 was at most 0.5 µM. As to `Cn1cc(-c2ccc3c(C(=O)N4CCc5[nH]cnc5[C@H]4c4nc5cc(F)ccc5o4)cnn3c2)cn1` [Example 71, (S)-(4-(5-fluorobenzo[d]oxazol-2-yl)-6,7-dihydro-1H-imidazo[4,5-c]pyridin-5(4H)-yl)(6-(1-methyl-1H-pyrazol-4-yl)pyrazolo[1,5-a]pyridin-3-yl)methanone], the AC50 fell in the range of 0.5 to 1 µM. On to `COc1cccc2oc([C@H]3c4nc[nH]c4CCN3C(=O)c3nc(C)nn3C)nc12` [Example 828, (R)-(1,3-dimethyl-1H-1,2,4-triazol-5-yl)(4-(4-methoxybenzo[d]oxazol-2-yl)-6,7-dihydro-1H-imidazo[4,5-c]pyridin-5(4H)-yl)methanone], for which the AC50 is at least 5 µM. The same measure, in the same setting: the value for `Cc1cccc2oc([C@@H]3c4nc[nH]c4CCN3C(=O)c3ccnn3C(F)F)nc12` [Example 449, (S)-(1-(difluoromethyl)-1H-pyrazol-5-yl)(4-(4-methylbenzo[d]oxazol-2-yl)-6,7-dihydro-1H-imidazo[4,5-c]pyridin-5(4H)-yl)methanone] was at most 0.5 µM; that for `O=C(c1ocnc1C(F)F)N1CCc2[nH]cnc2[C@H]1c1nc2cc(Cl)ccc2o1` [Example 378, (S)-(4-(5-chlorobenzo[d]oxazol-2-yl)-6,7-dihydro-1H-imidazo[4,5-c]pyridin-5(4H)-yl)(4-(difluoromethyl)oxazol-5-yl)methanone] was at most 0.5 µM; that for `O=C(c1ocnc1C(F)F)N1CCc2[nH]cnc2[C@@H]1c1nc2cccc(F)c2o1` [Example 174, (R)-(4-(difluoromethyl)oxazol-5-yl)(4-(7-fluorobenzo[d]oxazol-2-yl)-6,7-dihydro-1H-imidazo[4,5-c]pyridin-5(4H)-yl)methanone] was at most 0.5 µM. Regarding `O=C(c1cnn2cc(N3CCC4(CC3)CC4)ccc12)N1CCc2[nH]cnc2[C@@H]1c1nc2cccc(F)c2o1` [Example 396, (R)-(6-(6-azaspiro[2.5]octan-6-yl)pyrazolo[1,5-a]pyridin-3-yl)(4-(7-fluorobenzo[d]oxazol-2-yl)-6,7-dihydro-1H-imidazo[4,5-c]pyridin-5(4H)-yl)methanone], the AC50 lay within 1 to 5 µM.

On to `O=C(c1oc(-c2ccc(F)cn2)nc1C(F)F)N1CCc2[nH]cnc2[C@H]1c1nc2cc(F)ccc2o1` [Example 418, (S)-(4-(difluoromethyl)-2-(5-fluoropyridin-2-yl)oxazol-5-yl)(4-(5-fluorobenzo[d]oxazol-2-yl)-6,7-dihydro-1H-imidazo[4,5-c]pyridin-5(4H)-yl)methanone], for which the concentration at half-maximal activity (AC50) was at most 0.5 µM.

As to `Cn1ccc(-c2nnc(C(=O)N3CCc4[nH]cnc4[C@H]3c3nc4c(F)cccc4o3)o2)n1` [Example 379, (S)-(4-(4-fluorobenzo[d]oxazol-2-yl)-1,4,6,7-tetrahydro-5H-imidazo[4,5-c]pyridin-5-yl)(5-(1-methyl-1H-pyrazol-3-yl)-1,3,4-oxadiazol-2-yl)methanone], the AC50 was at most 0.5 µM. On to `CC(C)n1ncnc1C(=O)N1CCc2[nH]cnc2[C@H]1c1nc2cccc(F)c2o1` [Example 707, (S)-(4-(7-fluorobenzo[d]oxazol-2-yl)-6,7-dihydro-1H-imidazo[4,5-c]pyridin-5(4H)-yl)(1-isopropyl-1H-1,2,4-triazol-5-yl)methanone], for which the AC50 was at most 0.5 µM. `O=C(c1ocnc1C(F)(F)F)N1CCc2[nH]cnc2[C@@H]1c1nc2ccc(Br)cc2o1` [Example 144, (R)-(4-(6-bromobenzo[d]oxazol-2-yl)-6,7-dihydro-1H-imidazo[4,5-c]pyridin-5(4H)-yl)(4-(trifluoromethyl)oxazol-5-yl)methanone]: the AC50 is at most 0.5 µM. On to `Cc1cccc2nc([C@H]3c4nc[nH]c4CCN3C(=O)c3nnc(-c4ccn(C(F)F)n4)o3)oc12` [Example 859, (R)-(5-(1-(difluoromethyl)-1H-pyrazol-3-yl)-1,3,4-oxadiazol-2-yl)(4-(7-methylbenzo[d]oxazol-2-yl)-6,7-dihydro-1H-imidazo[4,5-c]pyridin-5(4H)-yl)methanone], for which the AC50 lay within 1 to 5 µM. As for `CC1CN(C(=O)c2ocnc2C(F)F)[C@H](c2nc3cccc(F)c3o2)c2nc[nH]c21` (single isomer, unassigned) [Example 804], the AC50 is at most 0.5 µM. `C[C@@H](O)c1nc(C(F)F)c(C(=O)N2CCc3[nH]cnc3[C@H]2c2nc3cc(F)ccc3o2)o1` [Example 151, (4-(difluoromethyl)-2-((R)-1-hydroxyethyl)oxazol-5-yl)((S)-4-(5-fluorobenzo[d]oxazol-2-yl)-6,7-dihydro-1H-imidazo[4,5-c]pyridin-5(4H)-yl)methanone]: the AC50 was at most 0.5 µM.

The same experiment, now with this note: A375 cells expressing R408W PAH; 24 hrs with compound, then 20 μM sepiapterin and 800 μM 13C9,15N-Phenylalanine for 4 hours; 13C-Tyrosine by LC-MS; average where tested multiple times.
`N#Cc1ccc2c(C(=O)N3CCc4[nH]cnc4C3c3nc4cc(F)ccc4o3)cnn2c1` (centres unmarked): the AC50 is at least 5 µM.

As to `Cc1ncoc1C(=O)N1CCc2[nH]cnc2C1c1nc2cc(F)ccc2o1` (centres unmarked), the concentration at half-maximal activity (AC50) was 1 to 5 µM.

As for `Cn1nc(C(F)(F)F)nc1C(=O)N1CCc2[nH]cnc2C1c1nc2c(F)cccc2o1` (centres unmarked), the AC50 lay within 1 to 5 µM.

`CC(C)(O)c1ncc(C(=O)N2CCc3[nH]cnc3C2c2nc3c(F)ccc(F)c3o2)o1` (centres unmarked): the AC50 was 1 to 5 µM. With `Cc1cccc2nc(C3c4nc[nH]c4CCN3C(=O)c3ccn(-c4ccccn4)n3)oc12` (centres unmarked), the half-maximal activity concentration (AC50) was at least 5 µM. For `CC(C)(O)c1nc(C(=O)N2CCc3[nH]cnc3C2c2nc3ccc(F)cc3o2)no1` (centres unmarked), the AC50 was at least 5 µM. On to `COCCCc1ccc2c(C(=O)N3CCc4[nH]cnc4C3c3nc4cc(F)ccc4o3)cnn2c1` (centres unmarked), for which the AC50 lay in the range of 1 to 5 µM. Consider `O=C(c1nnc(-c2cc[nH]n2)o1)N1CCc2[nH]cnc2C1c1nc2cc(F)ccc2o1` (centres unmarked), for which the half-maximal activity concentration (AC50) was in the range of 1 to 5 µM. Regarding `O=C(C1CC1)N1CCc2[nH]cnc2[C@@H]1c1nc2cc(F)ccc2o1` (single isomer, unassigned), the half-maximal activity concentration (AC50) is at least 5 µM. Consider `CC(C)(O)c1cc(C(=O)N2CCc3[nH]cnc3C2c2nc3c(F)cccc3o2)on1` (centres unmarked), for which the AC50 lay in the range of 1 to 5 µM.
